Measurements taken from article PMC4264453 (British Journal of Cancer, 2014).
Where a name gives a salt, the structure may show the parent alone.

Columns and labels:
[1] = tested on: patients with advanced solid tumours; conditions: 4 mg m^−2 cohort; ref Tan et al, 2009; cited from earlier work
[2] = tested on: patients with advanced solid malignancies; conditions: ref Goel et al, 2009; cited from earlier work
patients = conditions: ref Synold et al, 2005, cited from earlier work
[3] = no reference given; cited from earlier work
[4] = tested on: patients with advanced solid tumours; assay type: in vivo, human; conditions: days 1, 8 with cisplatin 75 mg m^−2 day 1, 21-day cycle
[5] = Eribulin plasma pharmacokinetics; assay type: in vivo, human; conditions: for AUC(0-inf) / clearance / Cmax / half-life / Vd: human, plasma, intravenous; for AUC(0-inf): AUC0-inf; for clearance: CL; for Vd: Vss
[6] = 60 mg, Dose level 3: eribulin mesylate 1.2 with cisplatin 60 mg m^−2, first dose, N=4, mean (s.d.)
[7] = 60 mg, Dose level 5: eribulin mesylate 1.4 with cisplatin 60 mg m^−2, first dose, N=6, mean (s.d.)
[8] = 75 mg, Dose level 6: eribulin mesylate 1.2 with cisplatin 75 mg m^−2, first dose, N=3, mean (s.d.)

## C=C1C[C@@H]2CC[C@@]34C[C@H]5O[C@H]6[C@@H](O3)[C@H]3O[C@H](CC[C@@H]3O[C@H]6[C@H]5O4)CC(=O)C[C@@H]3[C@@H](OC)[C@@H](C[C@H](O)CN)O[C@H]3C[C@H]3O[C@@H](CC[C@@H]1O2)C[C@@H](C)C3=C [Eribulin mesylate]
[1]
  patients experiencing febrile neutropenia (dominant DLT): all three patients
[2]
  principal DLT: neutropenia
patients; lung, breast, and thyroid
  minor responses: three
patients; range 2–14 months
  median duration of stable disease: 4 months
patients
  patients exhibiting stable disease as the best response: 12 patients
patients; single agent
  dose at which grade 3 toxicity first occurred: 0.5 mg m^−2
[3]
  administered dose recovered in urine: < 8%
[4]
  MTD and recommended phase II dose of eribulin mesylate in combination with cisplatin: 1.2 mg m^−2
[5]; compared to previously reported single agent data (Goel et al, 2009; Tan et al, 2009)
  effect of cisplatin co-administration on the disposition of eribulin mesylate: no apparent effect
[5]; eribulin 1.2–1.4 mg m^−2 with cisplatin
  dose proportionality of mean Cmax and AUC0-inf: did not increase in a dose-proportional manner
[5]; [6]
  AUC(0-inf): 1500 ng·h/mL
  clearance: 26.7 mL/min
  Cmax: 466 ng/mL
  Vd: 51.4 L
[5]; [7]
  AUC(0-inf): 1100 ng·h/mL
  clearance: 38.3 mL/min
  Cmax: 508 ng/mL
  Vd: 77.7 L
[5]; 60 mg, T1/2, Dose level 3: eribulin mesylate 1.2 with cisplatin 60 mg m^−2, first dose, N=4, mean (s.d.)
  half-life: 2450 min
[5]; 60 mg, T1/2, Dose level 5: eribulin mesylate 1.4 with cisplatin 60 mg m^−2, first dose, N=6, mean (s.d.)
  half-life: 2190 min
[5]; [8]
  AUC(0-inf): 1030 ng·h/mL
  clearance: 36.7 mL/min
  Cmax: 695 ng/mL
  Vd: 68.4 L
[5]; 75 mg, T1/2, Dose level 6: eribulin mesylate 1.2 with cisplatin 75 mg m^−2, first dose, N=3, mean (s.d.)
  half-life: 2130 min
